# Patent publication US7261876B2, “Multivalent constructs for therapeutic and diagnostic applications” (Bracco International BV, priority 2002, dated 2007)
# “Also recorded” adds a separate entry of the source. Positions of bridges follow the written chain, without caps; N, C: chain ends. Non-standard residues stand in square brackets, D forms with d. Residues, ends and D or L forms follow the SMILES beside them. Lys(ivDde) = CC(C)CC(NCCCC[C@H](N)C(=O)O)=C1C(=O)CC(C)(C)CC1=O
# Molecular target: T1, KDR (Homo sapiens, UniProt P35968)
# T1 construct: host or cells: HUVEC
# T1 sequence (P35968 20-1356): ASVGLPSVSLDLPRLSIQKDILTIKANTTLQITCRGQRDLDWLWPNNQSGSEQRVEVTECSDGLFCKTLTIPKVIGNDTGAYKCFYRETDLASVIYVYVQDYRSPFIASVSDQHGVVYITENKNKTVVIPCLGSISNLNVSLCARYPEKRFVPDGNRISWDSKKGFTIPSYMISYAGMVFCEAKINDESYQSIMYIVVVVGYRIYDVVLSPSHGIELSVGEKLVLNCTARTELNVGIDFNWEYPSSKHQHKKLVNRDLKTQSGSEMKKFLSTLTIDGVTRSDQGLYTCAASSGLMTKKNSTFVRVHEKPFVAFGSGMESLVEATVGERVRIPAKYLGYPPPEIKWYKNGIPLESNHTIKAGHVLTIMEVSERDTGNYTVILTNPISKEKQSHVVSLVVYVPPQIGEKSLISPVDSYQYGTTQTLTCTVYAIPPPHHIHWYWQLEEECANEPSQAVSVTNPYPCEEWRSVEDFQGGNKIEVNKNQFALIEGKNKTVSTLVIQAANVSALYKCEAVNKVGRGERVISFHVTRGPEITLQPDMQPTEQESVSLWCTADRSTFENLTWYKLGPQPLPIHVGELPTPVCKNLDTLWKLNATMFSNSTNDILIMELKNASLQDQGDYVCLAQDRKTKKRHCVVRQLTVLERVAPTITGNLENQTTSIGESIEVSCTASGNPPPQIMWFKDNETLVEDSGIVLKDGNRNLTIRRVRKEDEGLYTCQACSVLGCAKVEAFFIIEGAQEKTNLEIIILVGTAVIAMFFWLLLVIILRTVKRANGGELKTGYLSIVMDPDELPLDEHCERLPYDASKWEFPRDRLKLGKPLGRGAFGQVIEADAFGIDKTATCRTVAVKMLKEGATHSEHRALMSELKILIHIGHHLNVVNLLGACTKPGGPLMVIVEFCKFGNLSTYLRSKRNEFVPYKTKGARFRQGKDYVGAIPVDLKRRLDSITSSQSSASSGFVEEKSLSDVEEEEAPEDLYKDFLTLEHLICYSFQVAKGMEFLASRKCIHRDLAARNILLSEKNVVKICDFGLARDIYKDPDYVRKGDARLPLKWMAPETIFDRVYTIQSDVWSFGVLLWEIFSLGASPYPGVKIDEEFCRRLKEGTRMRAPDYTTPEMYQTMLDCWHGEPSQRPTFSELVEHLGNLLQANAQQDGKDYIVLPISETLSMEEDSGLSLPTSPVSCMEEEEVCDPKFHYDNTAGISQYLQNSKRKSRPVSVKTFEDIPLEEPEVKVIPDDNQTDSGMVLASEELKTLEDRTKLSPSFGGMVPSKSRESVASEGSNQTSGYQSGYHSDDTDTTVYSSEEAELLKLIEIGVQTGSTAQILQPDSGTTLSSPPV
# Experiment: VEGF-induced KDR receptor activation (phosphorylation) assay in HUVECs
# Type: cell-based
# Conditions: for inhibition of VEGF-induced activation of KDR: concentration not given; for inhibition of KDR activation / inhibition at 10 µM: 10 μM; for inhibition at 10 µM: HUVEC, read-out: inhibition of VEGF-induced KDR phosphorylation
# Description: Human umbilical vein endothelial cells (HUVECs) (Biowhittaker Cat No. CC-2519) were obtained frozen on dry ice and stored in liquid nitrogen until thawing. These cells were thawed, passaged, and maintained as described by the manufacturer in EGM-MV medium (Biowhittaker Cat No. CC-3125). Cells seeded into 100 mm dishes were allowed to become confluent, then cultured overnight in basal EBM medium lacking serum (Biowhittaker Cat No. CC-3121). The next morning, the medium in the dishes was replaced with 10 mL fresh EBM medium at 37° C. containing either no additive (negative control), 5 ng/mL VEGF (Calbiochem Cat No. 676472 or Peprotech Cat No. 100-20) (positive control), or 5 ng/mL VEGF plus the indicated concentration of the KDR-binding peptide (prepared as described above). In some cases, a neutralizing anti-KDR antibody (Cat No. AF357, R&D Systems) was used as a positive control inhibitor of activation. In such cases, the antibody was pre-incubated with the test cells for 30 min at 37° C. prior to the addition of fresh medium containing both VEGF and the antibody. After incubating the dishes 5 min in a 37° C. tissue culture incubator they were washed three times with ice-cold Dulbecco's phosphate buffered saline (D-PBS) containing calcium and magnesium and placed on ice without removing the last 10 mL of D-PBS. The first dish of a set was drained and 0.5 mL of Triton lysis buffer was added (20 mM Tris base pH 8.0, 137 mM NaCl, 10% glycerol, 1% Triton X-100, 2 mM EDTA (ethylenediaminetetraacetic acid), 1 mM PMSF (phenylmethylsulfonylfluoride), 1 mM sodium orthovanadate, 100 mM NaF, 50 mM sodium pyrophosphate, 10 μg/mL leupeptin, 10 μg/mL aprotinin). The cells were quickly scraped into the lysis buffer using a cell scraper (Falcon, Cat No. 353087), dispersed by pipeting up and down briefly, and the resulting lysate was transferred to the second drained dish of the pair. Another 0.5 mL of lysis buffer was used to rinse out the first dish then transferred to the second dish, which was then also scraped and dispersed. The pooled lysate from the two dishes was transferred to a 1.5 mL Eppindorf tube. The above procedure was repeated for each of the controls and test samples (KDR-binding peptides), one at a time. The lysates were stored on ice until all the samples had been processed. At this point samples were either stored at −70° C. or processed to the end of the assay without interruption.
# The lysates, either freshly prepared or frozen and thawed, were precleared by adding 20 μL of protein A-sepharose beads (Sigma 3391, preswollen in D-PBS), washed three times with a large excess of D-PBS, reconstituted with 6 mL D-PBS to generate a 50% slurry) and rocked at 4° C. for 30 min. The beads were pelleted by centrifugation for 2 min in a Picofuge (Stratgene, Cat No. 400550) at 2000×g and the supernatants transferred to new 1.5 mL tubes. 20 μg of anti-Flk-1 antibody (Santa Cruz Biotechnology, Cat No. sc-504) was added to each tube, and the tubes were incubated overnight (16–18 h) at 4° C. on a rotator to immunoprecipitate KDR. The next day 40 μL of protein A-sepharose beads were added to the tubes, which were then incubated at 4° C. for 1 h on a rotator. The beads in each tube were subsequently washed three times by centrifuging for 2 min in a Picofuge, discarding the supernatant, and dispersing the beads in 1 mL freshly added TBST buffer (20 mM Tris base pH 7.5, 137 mM NaCl, and 0.1% Tween 20). After centrifuging and removing the liquid from the last wash, 40 μL of Laemmli SDS-PAGE sample buffer (Bio-Rad, Cat No. 161-0737) was added to each tube and the tubes were capped and boiled for 5 min. After cooling, the beads in each tube were pelleted by centrifuging and the supernatants containing the immunoprecipitated KDR were transferred to new tubes and used immediately or frozen and stored at −70° C. for later analysis.
# Detection of phosphorylated KDR as well as total KDR in the immunoprecipitates was carried out by immunoblot analysis. […]
Compound,inhibition of VEGF-induced activation of KDR,inhibition of KDR activation,inhibition at 10 µM [%]
Ac-GDSRVC*WEDSWGGEVC*FRYDPGGGK-NH2 [P6-D],inhibit activation of KDR,,
CSCC[C@H](NC(=O)[C@H](Cc1ccc(O)cc1)NC(=O)[C@H](Cc1c[nH]c2ccccc12)NC(=O)[C@@H]1CSSC[C@H](NC(=O)[C@@H]2CCCN2C(=O)CNC(=O)[C@@H]2CCCN2C(=O)CNC(=O)[C@H](C)NC(C)=O)C(=O)N[C@@H](CCCCNC(CC(C)C)=C2C(=O)CC(C)(C)CC2=O)C(=O)NCC(=O)N[C@@H](Cc2ccc(O)cc2)C(=O)N[C@@H](CCSC)C(=O)N2CCC[C@H]2C(=O)N[C@@H](Cc2c[nH]cn2)C(=O)N[C@@H](CCC(N)=O)C(=O)N1)C(=O)NCC(=O)N[C@H](C(=O)NCC(=O)NCC(=O)NCC(=O)N[C@@H](CCCCN)C(N)=O)[C@@H](C)O [P21-E] (Ac-AGPGPC[Lys(ivDde)]GYMPHQCWYMGTGGGK-NH2; disulfide 6-14),,did not produce significant inhibition of KDR activation,
Ac-AQGDYVYWEIIELTGATDHTPPGGGK-NH2 [P11-D],inhibit activation of KDR,,≥ 50
Ac-AGPKWC*EEDWYYC*MITGT-GGGK-NH2 [P5-D],inhibit activation of KDR,,
CC(=O)NCC(=O)N[C@@H](CC(=O)O)C(=O)N[C@@H](Cc1ccc(O)cc1)C(=O)N1CCC[C@H]1C(=O)N[C@@H](Cc1c[nH]c2ccccc12)C(=O)N[C@H]1CSSC[C@@H](C(=O)N[C@H](C(=O)N2CCC[C@H]2C(=O)N[C@@H](Cc2c[nH]c3ccccc23)C(=O)N[C@@H](CC(=O)O)C(=O)N2CCC[C@H]2C(=O)NCC(=O)NCC(=O)NCC(=O)N[C@@H](CCCCN)C(N)=O)C(C)C)NC(=O)[C@H](Cc2ccccc2)NC(=O)[C@H](CCCNC(=N)N)NC(=O)[C@H]([C@@H](C)O)NC(=O)[C@H](C(C)C)NC(=O)[C@H](CO)NC(=O)[C@H](CC(=O)O)NC(=O)[C@H](CO)NC(=O)[C@H](CC(C)C)NC(=O)[C@H](CCC(=O)O)NC(=O)[C@H](Cc2c[nH]cn2)NC1=O [P15-D] (Ac-GDYPWCHELSDSVTRFCVPWDPGGGK-NH2; disulfide 6-17),,did not produce significant inhibition of KDR activation,
CSCC[C@H](NC(=O)[C@H](Cc1c[nH]cn1)NC(=O)[C@H](CC(=O)O)NC(=O)[C@H](CC(=O)O)NC(=O)CNC(C)=O)C(=O)N[C@H]1CSSC[C@@H](C(=O)N[C@@H](CCSC)C(=O)N[C@@H](Cc2ccc(O)cc2)C(=O)N[C@@H](Cc2c[nH]c3ccccc23)C(=O)N[C@@H](CC(=O)O)C(=O)N2CCC[C@H]2C(=O)NCC(=O)NCC(=O)NCC(=O)N[C@@H](CCCCN)C(N)=O)NC(=O)[C@H](Cc2ccccc2)NC(=O)[C@H](C(C)C)NC(=O)[C@H](Cc2c[nH]cn2)NC(=O)[C@H](CC(=O)O)NC(=O)[C@H](CCC(N)=O)NC(=O)[C@H](Cc2ccc(O)cc2)NC(=O)[C@H](CC(=O)O)NC(=O)[C@@H]2CCCN2C(=O)[C@H](CO)NC(=O)[C@H](CCCNC(=N)N)NC1=O [P16-D] (Ac-GDDHMCRSPDYQDHVFCMYWDPGGGK-NH2; disulfide 6-17),,did not produce significant inhibition of KDR activation,
CSCC[C@@H]1NC(=O)[C@H](CCC(=O)O)NC(=O)[C@@H](NC(=O)[C@H](Cc2c[nH]c3ccccc23)NC(=O)[C@H](CO)NC(=O)CNC(=O)[C@H](CC(=O)O)NC(=O)CNC(C)=O)CSSC[C@@H](C(=O)N[C@@H](Cc2ccccc2)C(=O)N[C@@H](CO)C(=O)N[C@@H](CC(=O)O)C(=O)N[C@@H](CC(=O)O)C(=O)N2CCC[C@H]2C(=O)NCC(=O)NCC(=O)NCC(=O)N[C@@H](CCCCN)C(N)=O)NC(=O)[C@H](CC(N)=O)NC(=O)[C@H](Cc2c[nH]c3ccccc23)NC(=O)[C@H](CCCCNC(CC(C)C)=C2C(=O)CC(C)(C)CC2=O)NC(=O)CNC(=O)[C@H](C(C)C)NC(=O)[C@H](CC(=O)O)NC(=O)[C@H](CCC(N)=O)NC(=O)[C@H](CCCNC(=N)N)NC1=O [P18-E] (Ac-GDGSWCEMRQDVG[Lys(ivDde)]WNCFSDDPGGGK-NH2; disulfide 6-17),,did not produce significant inhibition of KDR activation,
CC(=O)N[C@@H](C)C(=O)NCC(=O)N[C@@H](Cc1c[nH]c2ccccc12)C(=O)N[C@@H](CC(C)C)C(=O)N[C@@H](CCC(=O)O)C(=O)N[C@H]1CSSC[C@@H](C(=O)N[C@@H](Cc2ccc(O)cc2)C(=O)N[C@@H](CC(N)=O)C(=O)N[C@@H](Cc2ccccc2)C(=O)NCC(=O)N[C@H](C(=O)NCC(=O)NCC(=O)NCC(=O)N[C@@H](CCCCN)C(N)=O)[C@@H](C)O)NC(=O)[C@H](Cc2c[nH]cn2)NC(=O)CNC(=O)[C@H](Cc2ccccc2)NC(=O)[C@H](CCC(=O)O)NC(=O)[C@H](C)NC(=O)[C@H](Cc2ccc(O)cc2)NC1=O [P3-D] (Ac-AGWLECYAEFGHCYNFGTGGGK-NH2; disulfide 6-13),,,≥ 50
CC(=O)N[C@@H](C)C(=O)N[C@@H](CCC(N)=O)C(=O)N[C@@H](CCCNC(=N)N)C(=O)NCC(=O)N[C@@H](CC(=O)O)C(=O)N[C@@H](Cc1ccc(O)cc1)C(=O)N[C@@H](CCC(N)=O)C(=O)N[C@@H](CCC(=O)O)C(=O)N[C@@H](CCC(N)=O)C(=O)N[C@@H](Cc1ccc(O)cc1)C(=O)N[C@@H](Cc1c[nH]c2ccccc12)C(=O)N[C@@H](Cc1c[nH]cn1)C(=O)N[C@@H](CCC(N)=O)C(=O)N[C@@H](CCC(N)=O)C(=O)N[C@@H](CC(C)C)C(=O)N[C@H](C(=O)N[C@@H](CCC(=O)O)C(=O)N[C@@H](CCC(N)=O)C(=O)N[C@@H](CC(C)C)C(=O)N[C@@H](CCCCNC(CC(C)C)=C1C(=O)CC(C)(C)CC1=O)C(=O)N[C@@H](CC(C)C)C(=O)N[C@@H](CC(C)C)C(=O)NCC(=O)NCC(=O)NCC(=O)N[C@@H](CCCCN)C(N)=O)C(C)C [P19-E] (Ac-AQRGDYQEQYWHQQLVEQL[Lys(ivDde)]LLGGGK-NH2),,did not produce significant inhibition of KDR activation,
CC[C@H](C)[C@@H]1NC(=O)[C@H](Cc2c[nH]c3ccccc23)NC(=O)[C@H](CCC(N)=O)NC(=O)CNC(=O)[C@H](CC(N)=O)NC(=O)[C@H](Cc2c[nH]cn2)NC(=O)[C@H](CC(C)C)NC(=O)[C@H](Cc2ccc(O)cc2)NC(=O)[C@@H](NC(=O)[C@H](Cc2c[nH]cn2)NC(=O)[C@H](Cc2c[nH]cn2)NC(=O)[C@H](CC(=O)O)NC(=O)[C@H](CO)NC(=O)CNC(C)=O)CSSC[C@@H](C(=O)N[C@@H](Cc2ccc(O)cc2)C(=O)N2CCC[C@H]2C(=O)N[C@@H](Cc2ccccc2)C(=O)N[C@@H](C)C(=O)N2CCC[C@H]2C(=O)NCC(=O)NCC(=O)NCC(=O)N[C@@H](CCCCN)C(N)=O)NC1=O [P14-D] (Ac-GSDHHCYLHNGQWICYPFAPGGGK-NH2; disulfide 6-15),,did not produce significant inhibition of KDR activation,
CC(=O)NCC(=O)N[C@@H](CC(=O)O)C(=O)N1CCC[C@H]1C(=O)N1CCC[C@H]1C(=O)N[C@@H](CC(C)C)C(=O)N[C@H]1CSSC[C@@H](C(=O)N[C@@H](CC(N)=O)C(=O)N2CCC[C@H]2C(=O)N[C@@H](Cc2ccccc2)C(=O)N[C@@H](CC(=O)O)C(=O)N2CCC[C@H]2C(=O)NCC(=O)NCC(=O)NCC(=O)N[C@@H](CCCCN)C(N)=O)NC(=O)[C@H](Cc2c[nH]cn2)NC(=O)[C@H](Cc2c[nH]cn2)NC(=O)[C@H](Cc2c[nH]c3ccccc23)NC(=O)[C@H](CCC(=O)O)NC(=O)[C@H](CCC(N)=O)NC(=O)[C@H]([C@@H](C)O)NC(=O)CNC(=O)[C@H](C(C)C)NC(=O)[C@H](Cc2ccccc2)NC(=O)[C@H](Cc2ccc(O)cc2)NC1=O [P17-D] (Ac-GDPPLCYFVGTQEWHHCNPFDPGGGK-NH2; disulfide 6-17),,did not produce significant inhibition of KDR activation,
Ac-AQAFPRFGGDDYWIQQYLRYTDGGK-NH2 [P10-D],inhibit activation of KDR; also recorded: able to largely inhibit the VEGF-induced phosphorylation of KDR,,
